Source: US7368255B2, “RUNX3 gene showing anti-tumor activity and use thereof” (priority 2001, dated 2008)
Entries after “also recorded” stand apart in the source; their conditions may differ.

Columns and labels:
SNU16-Rx3-AS-c11 cells [1] = experiment: TGF-β1-induced cell death, viable cell counts; format: cell-based; conditions: TGF-β1 1 ng/ml; SNU16-Rx3-AS-c11 cells (antisense RUNX3)
SNU16-Rx3-AS-c12 cells [2] = experiment: TGF-β1-induced cell death, viable cell counts; format: cell-based; conditions: TGF-β1 1 ng/ml; SNU16-Rx3-AS-c12 cells (antisense RUNX3)
SNU16 cells [3] = experiment: TGF-β1-induced cell death, viable cell counts; format: cell-based; conditions: TGF-β1 1 ng/ml
SNU16 cells [4] = experiment: Apoptotic DNA bands by genomic DNA electrophoresis after TGF-β1; format: cell-based; conditions: TGF-β1 1 ng/ml, 6 hours
Method: (§1) Cells dying through the programmed cell death pathway reveal a distinct pattern of DNA bands when electrophoresed in an agarose gel. After being treated with 1 ng/ml TGF-β1 for 6 hours, the control-SNU16, SNU16-Rx3-AS-c11, and SNU16-Rx3-AS-c12 strains were lysed to isolate genomic DNAs according to a standard method (Sambrook et al., 1988, Molecular Cloning: a laboratory manual, 2nd Ed. Cold Spring Harbor Laboratory, Cold Spring Harbor, N.Y., USA). 0.2 μg of each of the genomic DNA preparations was electrophoresed on a 1.5% agarose gel and visualized with ethidium bromide under UV light.

SNU16-Rx3-AS-c12 cells [5] = experiment: as above; format: cell-based; conditions: TGF-β1 1 ng/ml, 6 hours
Method: as §1

SNU16-Rx3-AS-c11 cells [6] = experiment: as above; format: cell-based; conditions: TGF-β1 1 ng/ml, 6 hours
Method: as §1

RUNX3 gene expression = experiment: Reactivation of RUNX3 gene expression, RT-PCR; format: cell-based, human; conditions: AZA 300 nM, TSA 1 mM, alone or in combination, 3 days, NUGC3, MKN28, MKN74 cell lines
Method: To determine whether the DNA methylation observed in Example 5-1 is the direct cause of the inactivation of the RUNX3 gene, the influence of a DNA methyltransferase inhibitor and a histone deacetylase inhibitor on the reactivation of the RUNX3 gene expression was analyzed.
The NUGC3, MKN28, and MKN74 cell lines (selected randomly from the cell lines showing no RUNX3 gene expression by RT-PCR analysis) were treated with […] (AZA, 300 nM), which inhibits DNA methyltransferase, and trichostatin A (TSA, […]), which inhibits histone deacetylase, alone or in combination. After 3 days of the treatment, total RNA was isolated from each cell line in accordance with the same standardized single-step guanidium method used in Example 4-1, and then analyzed for the expression of the RUNX3 gene by RT-PCR using the PS-N primer pair of SEQ. ID. NOS: 4 and 5.

Compound	cell death after TGF-β1 treatment (SNU16-Rx3-AS-c11 cells [1])	cell death after TGF-β1 treatment (SNU16-Rx3-AS-c12 cells [2])	time within which SNU16 cells were killed (SNU16 cells [3])	apoptotic DNA bands (SNU16 cells [4])	apoptotic DNA bands (SNU16-Rx3-AS-c12 cells [5])	apoptotic DNA bands (SNU16-Rx3-AS-c11 cells [6])	expression of the RUNX3 gene (RT-PCR) (RUNX3 gene expression)	expression of the RUNX3 gene (RT-PCR) (RUNX3 gene expression; listed as 5-aza-2-deoxycytidine)
TGF-β1: TGF-β1 cytokine used at 1 ng/ml to induce cell death in SNU16 cells	did not kill	did not kill	≤ 2 days	apoptotic DNA bands were formed; also recorded: These bands are apparent	no apoptotic bands were observed	no apoptotic bands were observed	–	–
Nc1ncn([C@H]2C[C@H](O)[C@@H](CO)O2)c(=O)n1	–	–	–	–	–	–	the expression of the RUNX3 gene was induced	allows the RUNX3 gene to be expressed
CC(/C=C/C(=O)NO)=C\[C@@H](C)C(=O)c1ccc(N(C)C)cc1 [trichostatin A]	–	–	–	–	–	–	allows the RUNX3 gene to be expressed; also recorded: the expression of the RUNX3 gene was induced	–
